US20120101100A1 (priority 2008, published 2012)

The compounds below were run against S. aureus GyrB ATPase (Staphylococcus aureus, UniProt P0A0K8) (assay: S. aureus (SAU) GyrB ATPase inhibition, malachite green phosphate detection (E. coli GyrA + S. aureus GyrB)). Conditions: compound concentration of 1.0 μM unless otherwise noted; average value where assay was carried out more than once; read-out: S. aureus (SAU) GyrB ATPase % Inhibition.
Sequence of S. aureus GyrB ATPase (P0A0K8 whole entry): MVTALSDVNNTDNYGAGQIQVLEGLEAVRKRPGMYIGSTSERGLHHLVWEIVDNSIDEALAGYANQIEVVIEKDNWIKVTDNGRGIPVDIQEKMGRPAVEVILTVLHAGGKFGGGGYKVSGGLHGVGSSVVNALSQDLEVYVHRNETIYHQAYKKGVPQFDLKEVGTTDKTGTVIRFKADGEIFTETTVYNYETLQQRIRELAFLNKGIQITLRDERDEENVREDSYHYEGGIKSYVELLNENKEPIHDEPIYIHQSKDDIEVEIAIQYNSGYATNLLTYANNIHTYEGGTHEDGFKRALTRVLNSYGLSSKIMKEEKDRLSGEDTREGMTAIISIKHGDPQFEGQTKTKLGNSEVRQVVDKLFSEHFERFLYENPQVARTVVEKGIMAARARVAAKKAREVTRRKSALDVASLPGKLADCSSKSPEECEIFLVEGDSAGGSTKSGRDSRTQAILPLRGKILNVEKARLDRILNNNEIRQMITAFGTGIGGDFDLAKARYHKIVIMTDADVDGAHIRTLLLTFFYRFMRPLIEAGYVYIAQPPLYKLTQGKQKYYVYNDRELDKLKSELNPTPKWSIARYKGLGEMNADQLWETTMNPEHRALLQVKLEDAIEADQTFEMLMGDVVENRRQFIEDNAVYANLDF
Sequence of S. aureus GyrB ATPase (P0AES4 whole entry, further chain): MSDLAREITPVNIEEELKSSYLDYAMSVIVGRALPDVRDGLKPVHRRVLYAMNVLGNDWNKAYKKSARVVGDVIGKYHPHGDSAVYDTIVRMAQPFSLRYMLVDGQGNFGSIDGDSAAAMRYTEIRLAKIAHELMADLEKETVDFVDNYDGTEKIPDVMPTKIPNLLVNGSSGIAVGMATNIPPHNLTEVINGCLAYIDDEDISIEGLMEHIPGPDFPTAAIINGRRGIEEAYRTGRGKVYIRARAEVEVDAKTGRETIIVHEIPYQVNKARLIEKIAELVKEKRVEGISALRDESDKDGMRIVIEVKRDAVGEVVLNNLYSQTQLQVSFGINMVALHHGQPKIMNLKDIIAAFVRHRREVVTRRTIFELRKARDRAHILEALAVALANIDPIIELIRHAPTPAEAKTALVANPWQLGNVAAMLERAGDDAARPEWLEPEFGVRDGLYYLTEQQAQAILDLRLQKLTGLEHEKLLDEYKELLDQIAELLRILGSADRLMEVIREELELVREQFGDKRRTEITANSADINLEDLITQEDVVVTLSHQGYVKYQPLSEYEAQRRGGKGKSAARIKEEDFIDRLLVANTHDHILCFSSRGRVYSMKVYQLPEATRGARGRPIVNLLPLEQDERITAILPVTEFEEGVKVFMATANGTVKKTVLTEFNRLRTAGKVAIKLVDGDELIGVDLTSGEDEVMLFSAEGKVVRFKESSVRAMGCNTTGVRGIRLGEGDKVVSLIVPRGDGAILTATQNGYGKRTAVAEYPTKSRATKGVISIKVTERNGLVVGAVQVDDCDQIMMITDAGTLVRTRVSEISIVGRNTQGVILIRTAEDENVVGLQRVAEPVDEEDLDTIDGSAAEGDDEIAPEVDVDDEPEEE
Format: biochemical
In short: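 Phosphate from ATP hydrolysis (500 μM ATP) read as malachite green/molybdate absorbance at 650 nm after acid quench. Reaction: 1.25 nM S. aureus GyrB plus 1.25 nM E. coli GyrA, sheared DNA, Hepes pH 7.5 with Mg2+. IC50 fitted over 10 concentrations, normalised to DMSO (2%) and novobiocin (2 μM) controls.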
`CCNC(=O)Nc1cc(-c2nc(C(F)(F)F)c(C(=O)NC3CCCCC3)s2)c(-c2cncc(-c3nnc(C)o3)c2)cn1` [Example 70, N-cyclohexyl-2-(6-(3-ethylureido)-5′-(5-methyl-1,3,4-oxadiazol-2-yl)-3,3′-bipyridin-4-yl)-4-(trifluoromethyl)thiazole-5-carboxamide] gave an inhibition at 1 µM of 96%.
With `CCNC(=O)Nc1cc(-c2nc(-c3cccnc3OCCOC)cs2)c(-c2cncc(-c3n[nH]c(=O)o3)c2)cn1` [Example 208] the inhibition at 1 µM was 100%.
Compound `CCNC(=O)Nc1cc(-c2nc(C(F)(F)F)c(C(=O)NCCOC)s2)c(-c2cncc(-c3n[nH]c(=O)o3)c2)cn1` [Example 59, 2-(6-(3-ethylureido)-5′-(5-oxo-4,5-dihydro-1,3,4-oxadiazol-2-yl)-3,3′-bipyridin-4-yl)-N-(2-methoxyethyl)-4-(trifluoromethyl)thiazole-5-carboxamide] has an inhibition at 1 µM of 98%.
Compound `CCNC(=O)Nc1cc(-c2nc(C(F)(F)F)cs2)c(-c2cc(-c3n[nH]c(=O)o3)cnc2OCCCC2CCCC2)cn1` [Example 220] has an inhibition at 1 µM of 91%.
`CCNC(=O)Nc1cc(-c2nc(-c3cnn(C)c3)cs2)c(-c2cncc(-c3n[nH]c(=O)o3)c2)cn1` [Example 27, 1-ethyl-3-(4-(4-(1-methyl-1H-pyrazol-4-yl)thiazol-2-yl)-5′-(5-oxo-4,5-dihydro-1,3,4-oxadiazol-2-yl)-3,3′-bipyridin-6-yl)urea] showed an inhibition at 1 µM of 109%.
In the case of `CCNC(=O)Nc1cc(-c2nc(C(F)(F)F)cs2)c(-c2cncc(-c3nnc(COCCOC)o3)c2)cn1` [Example 278, 1-ethyl-3-(5′-(5-((2-methoxyethoxy)methyl)-1,3,4-oxadiazol-2-yl)-4-(4-(trifluoromethyl)thiazol-2-yl)-3,3′-bipyridin-6-yl)urea], the inhibition at 1 µM is reported as 68%.
`CCNC(=O)Nc1cc(-c2nc(-c3ccc(OC)nc3)cs2)c(-c2cncc(-c3n[nH]c(=O)o3)c2)cn1` [Example 203] gave an inhibition at 1 µM of 104%.
`CCNC(=O)Nc1cc(-c2nc(C(F)(F)F)cs2)c(-c2cncc(-c3nnc(N4CCN(C)CC4)o3)c2)cn1` [Example 155] was tested, and the inhibition at 1 µM was 96%.
In the case of `CCNC(=O)Nc1cc(-c2nc(C(F)(F)F)cs2)c(-c2cc(-c3n[nH]c(=O)o3)cnc2OC(C)CN(C)C)cn1` (stereo not shown) [Example 118], the inhibition at 1 µM is reported as 118%.
For `CCNC(=O)Nc1cc(-c2nc(C(F)(F)F)c(C(=O)NCCN3CCN(C)CC3)s2)c(-c2cncc(-c3nnc(C)o3)c2)cn1` [Example 64, 2-(6-(3-ethylureido)-5′-(5-methyl-1,3,4-oxadiazol-2-yl)-3,3′-bipyridin-4-yl)-N-(2-(4-methylpiperazin-1-yl)ethyl)-4-(trifluoromethyl)thiazole-5-carboxamide], the inhibition at 1 µM was 98%.
Work on `CCNC(=O)Nc1cc(-c2nc(C(F)(F)F)cs2)c(-c2ccnc(-c3nnc([C@@H]4COCCN4)o3)c2)cn1` [Example 242, (S)-1-ethyl-3-(2′-(5-(morpholin-3-yl)-1,3,4-oxadiazol-2-yl)-4-(4-(trifluoromethyl)thiazol-2-yl)-3,4′-bipyridin-6-yl)urea] yielded an inhibition at 1 µM of 118%.
Compound `CCNC(=O)Nc1cc(-c2nnc(-c3ccccc3)o2)c(-c2ccnc(-c3nnc(C)o3)c2)cn1` [Example 229] has an inhibition at 1 µM of 99%.
Work on `CCNC(=O)Nc1cc(-c2nnc(-c3ccccc3)o2)c(-c2ncc(-c3n[nH]c(=O)o3)s2)cn1` [Example 194] yielded an inhibition at 1 µM of 101%.
In the case of `CCNC(=O)Nc1cc(-c2nc(-c3cccc(OC)n3)cs2)c(-c2ccnc(-c3nnc(C)o3)c2)cn1` [Example 249, 1-ethyl-3-(4-(4-(6-methoxypyridin-2-yl)thiazol-2-yl)-2′-(5-methyl-1,3,4-oxadiazol-2-yl)-3,4′-bipyridin-6-yl)urea], the inhibition at 1 µM is reported as 97%.
With `CCNC(=O)Nc1cc(-c2nc(C(F)(F)F)cs2)c(-c2cncc(-c3nnc(C(C)(C)OC(C)=O)o3)c2)cn1` [Example 264, 2-(5-(6′-(3-ethylureido)-4′-(4-(trifluoromethyl)thiazol-2-yl)-3,3′-bipyridin-5-yl)-1,3,4-oxadiazol-2-yl)propan-2-yl acetate] the inhibition at 1 µM was 98%.
Work on `CCNC(=O)Nc1cc(-c2nc(-c3ccccn3)cs2)c(-c2ccnc(-c3n[nH]c(=O)o3)c2)cn1` [Example 106, 1-Ethyl-3-(2′-(5-oxo-4,5-dihydro-1,3,4-oxadiazol-2-yl)-4-(4-(pyridin-2-yl)thiazol-2-yl)-3,4′-bipyridin-6-yl)urea] yielded an inhibition at 1 µM of 102%.
`CCNC(=O)Nc1cc(-c2nc(C(F)(F)F)c(C(=O)NC3CC3)s2)c(-c2cncc(-c3n[nH]c(=O)o3)c2)cn1` [Example 65] showed an inhibition at 1 µM of 94%.
`CCNC(=O)Nc1cc(-c2nc(C(F)(F)F)cs2)c(-c2cc(OC(C)C)nc(-c3n[nH]c(=O)o3)c2)cn1` [Example 79, 1-ethyl-3-(2′-isopropoxy-6′-(5-oxo-4,5-dihydro-1,3,4-oxadiazol-2-yl)-4-(4-(trifluoromethyl)thiazol-2-yl)-3,4′-bipyridin-6-yl)urea] was tested, and the inhibition at 1 µM was 95%.
Work on `CCNC(=O)Nc1cc(-c2nc(-c3cccc(OC)n3)cs2)c(-c2nc(-c3ncnn3C)c(-c3nnc(C)o3)s2)cn1` [Example 252, 1-ethyl-3-(4-(4-(6-methoxypyridin-2-yl)thiazol-2-yl)-5-(5-(5-methyl-1,3,4-oxadiazol-2-yl)-4-(1-methyl-1H-1,2,4-triazol-5-yl)thiazol-2-yl)pyridin-2-yl)urea] yielded an inhibition at 1 µM of 99%.
`CCNC(=O)Nc1cc(-c2nc(C(F)(F)F)cs2)c(-c2cncc(C(=N)N)c2)cn1` [Example 164, 6′-(3-Ethylureido)-4′-(4-(trifluoromethyl)thiazol-2-yl)-3,3′-bipyridine-5-carboximidamide] showed an inhibition at 1 µM of 96%.
Compound `CCNC(=O)Nc1cc(-c2nnc(-c3ccc(F)cc3)o2)c(-c2cncc(-c3n[nH]c(=O)o3)c2)cn1` [Example 198] has an inhibition at 1 µM of 104%.
For `CCNC(=O)Nc1cc(-c2nc(C(F)(F)F)cs2)c(-c2ccnc(-c3nnc([C@H]4COCCN4)o3)c2)cn1` [Example 243, (R)-1-ethyl-3-(2′-(5-(morpholin-3-yl)-1,3,4-oxadiazol-2-yl)-4-(4-(trifluoromethyl)thiazol-2-yl)-3,4′-bipyridin-6-yl)urea], the inhibition at 1 µM was 122%.
`CCNC(=O)Nc1cc(-c2nnc(-c3ccncc3)o2)c(-c2cncc(-c3n[nH]c(=O)o3)c2)cn1` [Example 38, 1-ethyl-3-(5′-(5-oxo-4,5-dihydro-1,3,4-oxadiazol-2-yl)-4-(5-(pyridin-4-yl)-1,3,4-oxadiazol-2-yl)-3,3′-bipyridin-6-yl)urea] was tested, and the inhibition at 1 µM was 108%.
`CCNC(=O)Nc1cc(-c2nc(-c3cccc(OC)n3)cs2)c(-c2cncc(-c3nnc(C)o3)c2)cn1` [Example 250, 1-ethyl-3-(4-(4-(6-methoxypyridin-2-yl)thiazol-2-yl)-5′-(5-methyl-1,3,4-oxadiazol-2-yl)-3,3′-bipyridin-6-yl)urea] showed an inhibition at 1 µM of 101%.
Compound `CCNC(=O)Nc1cc(-c2nc(C(F)(F)F)cs2)c(-c2cncc(S(C)(=O)=O)c2)cn1` [Example 22, 1-Ethyl-3-(5′-(methylsulfonyl)-4-(4-(trifluoromethyl)thiazol-2-yl)-3,3′-bipyridin-6-yl)urea] has an inhibition at 1 µM of 114%.
`CCNC(=O)Nc1cc(-c2nc(C(F)(F)F)cs2)c(-c2cncc(-c3nn(C(=O)N(C)C)c(=O)o3)c2)cn1` [Example 158, 5-(6′-(3-Ethylureido)-4′-(4-(trifluoromethyl)thiazol-2-yl)-3,3′-bipyridin-5-yl)-N,N-dimethyl-2-oxo-1,3,4-oxadiazole-3(2H)-carboxamide] gave an inhibition at 1 µM of 97%.
In the case of `O=C(NCC(F)F)Nc1cc(-c2nc(C(F)(F)F)cs2)c(-c2cncc(-c3n[nH]c(=O)o3)c2)cn1` [Example 50, 1-(2,2-difluoroethyl)-3-(5′-(5-oxo-4,5-dihydro-1,3,4-oxadiazol-2-yl)-4-(4-(trifluoromethyl)thiazol-2-yl)-3,3′-bipyridin-6-yl)urea], the inhibition at 1 µM is reported as 105%.
With `CCNC(=O)Nc1cc(-c2nc(C(F)(F)F)c(C(=O)NC3CCCC3)s2)c(-c2cncc(-c3nnc(C)o3)c2)cn1` [Example 68, N-cyclopentyl-2-(6-(3-ethylureido)-5′-(5-methyl-1,3,4-oxadiazol-2-yl)-3,3′-bipyridin-4-yl)-4-(trifluoromethyl)thiazole-5-carboxamide] the inhibition at 1 µM was 96%.
`CCNC(=O)Nc1cc(-c2nc(C(F)(F)F)cs2)c(-c2cncc(-c3nnc([C@H](C)O)o3)c2)cn1` [Example 237, (S)-1-ethyl-3-(5′-(5-(1-hydroxyethyl)-1,3,4-oxadiazol-2-yl)-4-(4-(trifluoromethyl)thiazol-2-yl)-3,3′-bipyridin-6-yl)urea] was tested, and the inhibition at 1 µM was 110%.
Work on `CCNC(=O)Nc1cc(-c2nc(C(F)(F)F)c(CNCCOC)s2)c(-c2cncc(-c3nnc(C)o3)c2)cn1` [Example 54, 1-ethyl-3-(4-(5-((2-methoxyethylamino)methyl)-4-(trifluoromethyl)thiazol-2-yl)-5′-(5-methyl-1,3,4-oxadiazol-2-yl)-3,3′-bipyridin-6-yl)urea] yielded an inhibition at 1 µM of 97%.
`CCNC(=O)Nc1cc(-c2nc(-c3cnn(C)c3)cs2)c(-c2cncc(-c3nnc(C)o3)c2)cn1` [Example 233, 1-ethyl-3-(5′-(5-methyl-1,3,4-oxadiazol-2-yl)-4-(4-(1-methyl-1H-pyrazol-4-yl)thiazol-2-yl)-3,3′-bipyridin-6-yl)urea] showed an inhibition at 1 µM of 100%.
In the case of `CCNC(=O)Nc1cc(-c2nc(C(F)(F)F)cs2)c(-c2nc(-c3n[nH]c(=O)o3)cs2)cn1` [Example 188], the inhibition at 1 µM is reported as 97%.
`CCNC(=O)Nc1cc(-c2nc(C(F)(F)F)cs2)c(-c2cc(-c3n[nH]c(=O)o3)cnc2N)cn1` [Example 260, 1-(2′-amino-5′-(5-oxo-4,5-dihydro-1,3,4-oxadiazol-2-yl)-4-(4-(trifluoromethyl)thiazol-2-yl)-3,3′-bipyridin-6-yl)-3-ethylurea] showed an inhibition at 1 µM of 96%.

Same assay, conditions: read-out: S. aureus (SAU) GyrB ATPase % Inhibition
With `CCNC(=O)Nc1cc(-c2nc(C(F)(F)F)cs2)c(-c2cc(-c3n[nH]c(=O)o3)c[n+]([O-])c2)cn1` [Example 139] the inhibition at 1 µM was 103%.
